Measured values as given in patent US8354414B2, “Substituted bicyclic pyrimidines” (Cephalon, Inc, priority 2006, dated 2013).
Structures can show the parent of a compound that is named as a salt. Where two headings read alike, the source gives them in different places.

Tests used:
CDK5/GST-p25 = target: T1, CDK5/GST-p25 (Homo sapiens, UniProt Q00535); experiment: Inhibition of CDK5/GST-p25 kinase activity (ELISA with time-resolved fluorescence readout); type: biochemical
T1 construct: The final construct, encoding for full-length human CDK5; made in house; host or cells: Sf21 insect cells (baculovirus co-infection)
In short: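 The substrate, GST-Rb(773-928), was immobilised on plates and phosphorylated for 20 min at 37 °C by 2 ng/ml CDK5/GST-p25 in HEPES pH 7.2 with 10 µM ATP and 10 mM MgCl2. Both proteins were human and co-expressed in insect cells. Ser-780 phosphorylation was read by europium time-resolved fluorescence and converted to IC50.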

His6-GSK-3β = target: T2, His6-GSK-3β (Homo sapiens, UniProt P49841); experiment: Inhibition of His6-GSK-3β kinase activity (ELISA-based format, time-resolved fluorescence readout); type: biochemical; details: for IC50: read-out: GSK3β IC50
T2 construct: made in house; host or cells: Sf21 insect cells (baculovirus)
In short: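 Plate-bound recombinant GST-Rb substrate was phosphorylated for 30 min at 37° C by baculovirus-expressed His6-GSK-3β (200 ng/ml) at 20 μM ATP, 10 mM MgCl2, 2.5% DMSO. Europium time-resolved fluorescence of anti-phospho-Ser780 Rb signal gave inhibition, fitted to IC50.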

T2 sequence (P49841 2-419): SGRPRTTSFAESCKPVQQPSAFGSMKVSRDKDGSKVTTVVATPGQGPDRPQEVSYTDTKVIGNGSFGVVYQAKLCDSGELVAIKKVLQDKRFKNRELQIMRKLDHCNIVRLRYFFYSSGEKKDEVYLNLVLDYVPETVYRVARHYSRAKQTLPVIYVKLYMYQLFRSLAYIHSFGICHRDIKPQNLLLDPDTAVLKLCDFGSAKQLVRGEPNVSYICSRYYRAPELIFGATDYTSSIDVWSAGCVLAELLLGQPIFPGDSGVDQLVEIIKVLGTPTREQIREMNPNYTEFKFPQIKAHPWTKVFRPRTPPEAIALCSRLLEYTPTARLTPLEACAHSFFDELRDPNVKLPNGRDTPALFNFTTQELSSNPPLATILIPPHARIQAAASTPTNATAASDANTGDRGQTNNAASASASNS
T1 sequence (Q00535 whole entry): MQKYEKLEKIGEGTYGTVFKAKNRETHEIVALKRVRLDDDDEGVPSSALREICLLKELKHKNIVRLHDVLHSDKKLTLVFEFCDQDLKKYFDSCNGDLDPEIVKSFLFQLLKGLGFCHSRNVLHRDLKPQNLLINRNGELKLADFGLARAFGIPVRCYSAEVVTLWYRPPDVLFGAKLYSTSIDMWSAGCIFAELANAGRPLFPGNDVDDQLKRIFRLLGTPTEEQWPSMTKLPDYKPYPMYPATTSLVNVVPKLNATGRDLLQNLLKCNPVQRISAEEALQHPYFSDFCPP
T1 sequence (Q15078 108-307 partner limits assumed): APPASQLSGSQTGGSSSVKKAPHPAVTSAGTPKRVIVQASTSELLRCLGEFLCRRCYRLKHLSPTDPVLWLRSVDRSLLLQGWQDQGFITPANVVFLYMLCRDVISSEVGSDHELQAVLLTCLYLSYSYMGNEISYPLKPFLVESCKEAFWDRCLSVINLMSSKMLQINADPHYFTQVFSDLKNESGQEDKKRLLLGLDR

Row | SMILES | IC50 (CDK5/GST-p25; numeric bounds) | IC50 (His6-GSK-3β; class symbols) | melting point | IC50 (CDK5/GST-p25; class symbols) | inhibition at 10 µM (CDK5/GST-p25) | GSK3β % @10 μM (His6-GSK-3β; @10 μM) | IC50 (His6-GSK-3β; numeric bounds)
1 | O=C1Nc2c(F)cc(F)cc2C1c1ncnc2nn(C3CCCC3)cc12 (centres unmarked) [Example 35, 3-(2-Cyclopentyl-2H-pyrazolo[3,4-d]pyrimidin-4-yl)-5,7-difluoro-1,3-dihydro-indol-2-one] | > 3000 nM | 300 to 3000 nM | 296 to 297 °C | – | – | – | –
2 | N#Cc1ccc2c(c1)NC(=O)C2c1ncnc2nn(C3CCCC3)cc12 (centres unmarked) [Example 38, 3-(2-Cyclopentyl-2H-pyrazolo [3,4-d]pyrimidin-4-yl)-2-oxo-2,3-dihydro-1H-indole-6-carbonitrile] | – | > 10000 nM | 340 to 344 °C | > 10000 nM | – | – | –
3 | CCCCCn1cc2c(C3C(=O)Nc4ccc(C(F)(F)F)cc43)nc(NCCCN)nc2n1 (centres unmarked) [Example 289, 3-[6-(3-Amino-propylamino)-2-pentyl-2H-pyrazolo[3,4-d]pyrimidin-4-yl]-5-trifluoromethyl-1,3-dihydro-indol-2-one] | – | < 300 nM | 235 °C (dec.) | < 300 nM | – | – | –
4 | O=C1Nc2cc(F)ccc2C1c1ncnc2c1cnn2C1CCCCC1 (centres unmarked) [Example 73, 3-(1-Cyclohexyl-1H-pyrazolo[3,4-d]pyrimidin-4-yl)-6-fluoro-1,3-dihydro-indol-2-one] | – | > 10000 nM | 277 to 280 °C | > 10000 nM | – | – | –
5 | C=CCn1cc2c(C3C(=O)Nc4ccc(C#N)cc43)ncnc2n1 (centres unmarked) [Example 76, 3-(2-Allyl-2H-pyrazolo[3,4-d]pyrimidin-4-yl)-2-oxo-2,3-dihydro-1H-indole-5-carbonitrile] | – | 300 to 3000 nM | > 300 °C | < 300 nM | – | – | –
6 | O=C1Nc2ccc(C(F)(F)F)cc2C1c1nc(NCc2cccnc2)nc2nn(C3CCCC3)cc12 (centres unmarked) [Example 161, 3-{2-cyclopentyl-6-[(pyridin-3-ylmethyl)-amino]-2H-pyrazolo [3,4-d]pyrimidin-4-yl}-5-trifluoromethyl-1,3-dihydro-indol-2-one] | – | < 300 nM | > 300 °C | – | 68% | – | –
7 | O=C1Nc2ccc([N+](=O)[O-])cc2C1c1ncnc2nn(C3CCCCC3)cc12 (centres unmarked) [Example 49, 3-(2-Cyclohexyl-2H-pyrazolo[3,4-d]pyrimidin-4-yl)-5-nitro-1,3-dihydroindol-2-one] | – | < 300 nM | 301 to 304 °C | < 300 nM | – | – | –
8 | O=C1Nc2cc(F)ccc2C1c1ncnc2nn(C3CCCCC3)cc12 (centres unmarked) [Example 50, 3-(2-cyclohexyl-2H-pyrazolo[3,4-d]pyrimidin-4-yl)-6-fluoro-1,3-dihydro-indol-2-one] | – | 300 to 3000 nM | 297 to 300 °C | 300 to 3000 nM | – | – | –
9 | Cn1cc2c(C3C(=O)Nc4ccc(Br)cc43)ncnc2n1 (centres unmarked) [Example 82, 5-Bromo-3-(2-methyl-2H-pyrazolo[3,4-d]pyrimidin-4-yl)-1,3-dihydro-indol-2-one] | – | 300 to 3000 nM | 360 to 365 °C | < 300 nM | – | – | –
10 | CCCn1cc2c(C3C(=O)Nc4ccc(C#N)cc43)nc(NCc3ccncc3)nc2n1 (centres unmarked) [Example 186, 2-Oxo-3-{2-propyl-6-[(pyridine-4-ylmethyl)-amino]-2H-pyrazolo [3,4-d]pyrimidin-4-yl}-2,3-dihydro-1H-indole-5-carbonitrile] | – | < 300 nM | 299 to 302 °C | < 300 nM | – | – | –
11 | COCCn1cc2c(C3C(=O)Nc4ccc(Br)cc43)nc(NC[C@@H](C)O)nc2n1 (stereo partly drawn) [Example 231, 5-Bromo-3-[6-((R)-2-hydroxy-propylamino)-2-(2-methoxy-ethyl)-2H-pyrazolo[3,4-d]pyrimidin-4-yl]-1,3-dihydro-indol-2-one] | – | < 300 nM | > 300 °C | < 300 nM | – | – | –
12 | O=c1[nH]c2ccccc2n1-c1ncnc2nn(C3CCCC3)cc12 [Example 44, 1-(2-Cyclopentyl-2H-pyrazolo[3,4-d]pyrimidin-4-yl)-1,3-dihydro-benzoimidazol-2-one] | – | > 10000 nM | 236 to 240 °C | > 10000 nM | – | – | –
13 | CCCn1cc2c(C3C(=O)Nc4ccc(S(=O)(=O)N(C)C)cc43)nc(NCCN(C)C)nc2n1 (centres unmarked) [Example 205, 3-[6-(2-Dimethylamino-ethylamino)-2-propyl-2H-pyrazolo [3,4-d]pyrimidin-4-yl]-2-oxo-2,3-dihydro-1H-indole-5-sulfonic acid dimethylamide] | > 3000 nM | > 10000 nM | 259 to 263 °C | – | – | – | –
14 | CC(C)Cn1cc2c(C3C(=O)Nc4ccc(Cl)cc43)nc(NCCN(C)C)nc2n1 (centres unmarked) [Example 270, 5-Chloro-3-[6-(2-dimethylamino-ethylamino)-2-isobutyl-2H-pyrazolo[3,4-d]pyrimidin-4-yl]-1,3-dihydro-indol-2-one] | – | < 300 nM | 264 to 265.5 °C | 300 to 3000 nM | – | – | –
15 | O=C1Nc2ccccc2C1c1nc(NCCc2cccnc2)nc2nn(C3CCCC3)cc12 (centres unmarked) [Example 155, 3-[2-cyclopentyl-6-(2-pyridin-3-yl-ethylamino)-2H-pyrazolo [3,4-d]pyrimidin-4-yl]-1,3-dihydro-indol-2-one] | > 1000 nM | 300 to 3000 nM | 258 to 260 °C | – | – | – | –
16 | CN(C)CCCNc1nc(C2C(=O)Nc3ccc(Cl)cc32)c2cn(C3CCCC3)nc2n1 (centres unmarked) [Example 377, 5-Chloro-3-[2-cyclopentyl-6-(3-dimethylamino-propylamino)-2H-pyrazolo [3,4-d]pyrimidin-4-yl]-1,3-dihydro-indol-2-one] | – | 300 to 3000 nM | 176 to 179 °C | > 10000 nM | – | – | –
17 | O=C1Nc2ccc(Cl)cc2C1c1nc(NCCCN2CCOCC2)nc2nn(C3CCCC3)cc12 (centres unmarked) [Example 278, 5-Chloro-3-[2-cyclopentyl-6-(3-morpholin-4-yl-propylamino)-2H-pyrazolo[3,4-d]pyrimidin-4-yl]-1,3-dihydro-indole-2-one] | – | < 300 nM | 250 to 254.5 °C | 300 to 3000 nM | – | – | –
18 | CCCn1cc2c(C3C(=O)Nc4ccc(Br)cc43)ncnc2n1 (centres unmarked) [Example 97, 5-Bromo-3-(2-propyl-2H-pyrazolo[3,4-d]pyrimidin-4-yl)-1,3-dihydro-indol-2-one] | – | < 300 nM | > 300 °C | < 300 nM | – | – | –
19 | CC(C)CNc1nc(C2C(=O)Nc3ccc(C(F)(F)F)cc32)c2cn(C3CCCC3)nc2n1 (centres unmarked) [Example 249, 3-(2-Cyclopentyl-6-isobutylamino-2H-pyrazolo[3,4-d]pyrimidin-4-yl)-5-trifluoromethyl-1,3-dihydro-indol-2-one] | – | – | 282 to 285 °C | > 10000 nM | – | 52% @10 μM | –
20 | CC(C)Cn1cc2c(C3C(=O)Nc4ccc(Br)cc43)nc(Cl)nc2n1 (centres unmarked) [Example 262, 5-Bromo-3-(6-chloro-2-isobutyl-2H-pyrazolo[3,4-d]pyrimidin-4-yl)-1,3-dihydro-indol-2-one] | – | – | 295 °C (dec.) | > 10000 nM | – | – | > 3000 nM
21 | C[C@@H](O)CNc1nc(C2C(=O)Nc3ccc(Cl)cc32)c2cn(C3CCCC3)nc2n1 (some centres unmarked) [Example 375] | – | < 300 nM | > 300 °C | – | 62% | – | –
22 | O=C1Nc2ccccc2C1c1ncnc2nn(C3CCCC3)cc12 (centres unmarked) [Example 37, 3-(2-Cyclopentyl-2H-pyrazolo[3,4-d]pyrimidin-4-yl)-1,3-dihydro-indo-2-one] | – | 300 to 3000 nM | 289 to 292 °C | 300 to 3000 nM | – | – | –
23 | CC(=O)NCCNc1nc(C2C(=O)Nc3ccc(C#N)cc32)c2cn(C3CCCC3)nc2n1 (centres unmarked) [Example 151, 3-(6-(2-acetylamino-ethylamino)-2-cyclopentyl-2H-pyrazolo [3,4-d]pyrimidin-4-yl)-2-oxo-2,3-dihydro-1H-indole-5-carbonitrile] | – | < 300 nM | > 300 °C | < 300 nM | – | – | –
24 | CCCn1cc2c(C3C(=O)Nc4ccc(F)cc43)ncnc2n1 (centres unmarked) [Example 100] | – | 300 to 3000 nM | 288 to 292 °C | < 300 nM | – | – | –
25 | COCCN(CCOC)c1nc(C2C(=O)Nc3ccc(C#N)cc32)c2cn(C3CCCC3)nc2n1 (centres unmarked) [Example 167, 3-{6-[bis-(2-methoxyethyl)amino]-2-cyclopentyl-2H-pyrazolo[3,4-d]pyrimidin-4-yl}-2-oxo-2,3-dihydro-1H-indole-5-carbonitrile] | > 3000 nM | < 300 nM | 248.5 to 249 °C | – | – | – | –
26 | CCCn1cc2c(C3(F)C(=O)Nc4ccc(Br)cc43)ncnc2n1 (centres unmarked) [Example 383, 5-Bromo-3-fluoro-3-(2-propyl-2H-pyrazolo[3,4-d]pyrimidin-4-yl)-1,3-dihydroindol-2-one] | – | – | 184 to 186 °C | – | – | – | –
27 | Cn1cc2c(C3C(=O)Nc4ccc(Br)cc43)nc(Cl)nc2n1 (centres unmarked) [Example 300, 5-Bromo-3-(6-chloro-2-methyl-2H-pyrazolo[3,4-d]pyrimidin-4-yl)-1,3-dihydro-indol-2-one] | – | – | > 300 °C | – | – | – | –
28 | CN(C)CCNc1nc(C2C(=O)Nc3ccc(Br)cc32)c2cn(C3CCCC3)nc2n1 (centres unmarked) (as salt: TFA) [Example 370, 5-Bromo-3-[2-cyclopentyl-6-(2-dimethylamino-ethylamino)-2H-pyrazolo [3,4-d]pyrimidin-4-yl]-1,3-dihydro-indol-2-one] | – | – | 190 to 192 °C | – | – | – | –
29 | O=C1Nc2cc(Cl)ccc2C1c1ncnc2nn(C3CCCCC3)cc12 (centres unmarked) [Example 51, 6-Chloro-3-(2-cyclohexyl-2H-pyrazolo[3,4-d]pyrimidin-4-yl)-1,3-dihydro-indol-2-one] | > 3000 nM | – | 299 to 303 °C | – | – | – | –
